Tests used:
Assay type in all cases: cell-based
ERRβ (GAL-L-ERRb) = molecular target: T1, ERRβ (GAL-L-ERRb) (Homo sapiens, UniProt O95718); assay: MH100x4 luciferase reporter with GAL-L-ERRb; design: Reporter Activity: unit not given here; conditions: for inhibition of the activity of ERRβ: result in words
T1 construct: expressed in transfected cells
T1 sequence (O95718 208-432 limits assumed): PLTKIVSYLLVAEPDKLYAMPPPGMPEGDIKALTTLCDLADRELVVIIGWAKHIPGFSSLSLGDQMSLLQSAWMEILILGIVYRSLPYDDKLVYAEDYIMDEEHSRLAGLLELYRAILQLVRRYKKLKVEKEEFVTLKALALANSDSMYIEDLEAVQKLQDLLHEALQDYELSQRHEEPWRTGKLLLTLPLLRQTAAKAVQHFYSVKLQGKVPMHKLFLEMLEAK
Excerpt: (§1) MH100x4 is a luciferase reporter with four copies of a GAL4 […] response element. GAL-L refers to the ligand-binding domain of the indicated receptor fused to the C-terminus of the GAL4 DNA binding domain.

ERRγ (GAL-ERRg) = assay: MH100x4 luciferase reporter with GAL-ERRg; design: Reporter Activity: unit not given here; conditions: for inhibition of the activity of ERRγ: result in words
Excerpt: as §1

ERRα (GAL-ERRa) = assay: MH100x4 luciferase reporter with GAL-ERRa; design: Reporter Activity: unit not given here
Excerpt: as §1

MH100x4 = MH100x4 luciferase reporter without receptor; conditions: Table 2, dose 5 (unit not given); for Reporter Activity: None 0.49; for Fold Activation: None 1.00
Excerpt: as §1

[1] = Table 2, dose 5 (unit not given), None 1.00
[2] = Table 2, dose 5 (unit not given), None 1.44
[3] = Table 2, dose 5 (unit not given), None 1.25
[4] = Table 2, dose 5 (unit not given), None 8.54
[5] = Table 3, dose 2.5 (unit not given), None 1
[6] = Table 3, dose 2.5 (unit not given), None 2.38
[7] = Table 3, dose 2.5 (unit not given), None 2.2
[8] = Table 3, dose 2.5 (unit not given), None 8.18

SMILES | Fold Activation (ERRβ (GAL-L-ERRb); [1]) | Reporter Activity (ERRβ (GAL-L-ERRb); [2]) | Fold Activation (ERRγ (GAL-ERRg); [1]) | Reporter Activity (ERRγ (GAL-ERRg); [3]) | Fold Activation (ERRα (GAL-ERRa); [1]) | Reporter Activity (ERRα (GAL-ERRa); [4]) | Reporter Activity (MH100x4) | Fold Activation (MH100x4) | Fold Activation (ERRβ (GAL-L-ERRb); [5]) | Reporter Activity (ERRβ (GAL-L-ERRb); [6]) | inhibition of the activity of ERRβ (ERRβ (GAL-L-ERRb)) | inhibition of the activity of ERRγ (ERRγ (GAL-ERRg)) | Fold Activation (ERRγ (GAL-ERRg); [5]) | Reporter Activity (ERRγ (GAL-ERRg); [7]) | Fold Activation (ERRα (GAL-ERRa); [5]) | Reporter Activity (ERRα (GAL-ERRa); [8])
CCC(=C(c1ccc(OC2CCCCO2)cc1)c1ccc(OC2CCCCO2)cc1)c1ccccc1 (centres unmarked) [DY26] |  |  |  |  |  |  |  |  | 1.01 | 2.4 |  |  | 0.99 | 2.17 | 1.15 | 9.38
CCCCCCCCCCCCOc1ccc(C(CC)=C(CC)c2ccc(OCCCCCCCCCCCC)cc2)cc1 [DY15] | 0.69 | 1 | 0.89 | 1.11 | 0.83 | 7.06 | 0.4 | 0.82 |  |  |  |  |  |  |  | 
C=CCOc1ccc(C(CC)=C(CC)c2ccc(O)c(CC=C)c2)cc1 [DY21] | 0.45 | 0.65 | 0.57 | 0.71 | 0.51 | 4.34 | 0.31 | 0.63 |  |  |  |  |  |  |  | 
CCCCCCCCCCCCOc1ccc(/C(CC)=C(\CC)c2ccc(O)cc2)cc1 [DY14] | 0.96 | 1.38 | 1.10 | 1.38 | 1.01 | 8.63 |  |  |  |  |  |  |  |  |  | 
CC/C(=C(/c1ccc(OCCN(C)C)cc1)c1ccc(OC(C)=O)cc1)c1ccccc1 [DY28, (E,Z)-4-{1-[4-(2-dimethylamino-ethoxy)-phenyl]-2-phenyl-but-1-enyl}-phenyl acetate] |  |  |  |  |  |  |  |  | 0.08 | 0.2 | inhibit the activity | inhibit the activity | 0.11 | 0.25 | 0.99 | 8.08
C=CCc1cc(C(CC)=C(CC)c2ccc(O)c(CC=C)c2)ccc1O [DY22] | 0.44 | 0.64 | 0.50 | 0.63 | 0.39 | 3.35 | 0.28 | 0.57 |  |  |  |  |  |  |  | 
CC(C)/C(=C(\c1ccc(O)cc1)c1ccc(OCN(C)C)cc1)c1ccccc1 [DY35, (Z)-4-[1-(4-Dimethylaminomethoxy-phenyl)-3-methyl-2-phenyl-but-1-enyl]-phenol] |  |  |  |  |  |  |  |  | 0.14 | 0.34 | inhibit the activity | inhibit the activity | 0.15 | 0.34 | 0.78 | 6.38
CN(C)CCOc1ccc(/C(=C(/CCCl)c2ccccc2)c2ccc(O)cc2)cc1 [DY33] |  |  |  |  |  |  |  |  |  |  |  |  |  | 0.58 |  | 

Further lines, with some results ahead:

Fold Activation (ERRβ (GAL-L-ERRb); [1]) | Reporter Activity (ERRβ (GAL-L-ERRb); [2]) | Fold Activation (ERRγ (GAL-ERRg); [1]) | Reporter Activity (ERRγ (GAL-ERRg); [3]) | Fold Activation (ERRα (GAL-ERRa); [1]) | Reporter Activity (ERRα (GAL-ERRa); [4]) | Reporter Activity (MH100x4) | Fold Activation (MH100x4) | Fold Activation (ERRβ (GAL-L-ERRb); [5]) | Reporter Activity (ERRβ (GAL-L-ERRb); [6]) | inhibition of the activity of ERRβ (ERRβ (GAL-L-ERRb)) | inhibition of the activity of ERRγ (ERRγ (GAL-ERRg)) | SMILES | Fold Activation (ERRγ (GAL-ERRg); [5]) | Reporter Activity (ERRγ (GAL-ERRg); [7]) | Fold Activation (ERRα (GAL-ERRa); [5]) | Reporter Activity (ERRα (GAL-ERRa); [8])
0.42 | 0.6 | 0.58 | 0.73 | 0.40 | 3.39 | 0.26 | 0.53 |  |  |  |  | CCC(=C(CC)c1ccc(O)c(C(C)(C)C)c1)c1ccc(O)cc1 [DY18] |  |  |  | 
0.70 | 1.01 | 0.81 | 1.01 | 0.75 | 6.39 | 0.35 | 0.71 |  |  |  |  | C=CCOc1ccc(C(CC)=C(CC)c2ccc(OCC=C)cc2)cc1 [DY20] |  |  |  | 
0.58 | 0.84 | 0.82 | 1.02 | 0.62 | 5.27 | 0.37 | 0.76 |  |  |  |  | CCC(=C(CC)c1ccc(Oc2cccc(C=O)c2)cc1)c1ccc(O)cc1 [DY19] |  |  |  | 
